Test results: US20150374705A1, “Substances for treatment or relief of pain” (Shanghai Institues for Biological Sciences, priority 2012, published 2015)
“Also recorded” adds a separate entry of the source. Like-named read-outs stand apart in the source and are kept apart here.

What was measured:
[1] = system: CFA induced inflammatory pain model rats (heat pain); experiment: CFA induced inflammatory pain model, heat pain threshold; format: in vivo; conditions: rat, 3 mg/kg injection, 3 days after CFA, 1 hour after administration
[2] = system: SNI model rats (neuropathic pain); experiment: Spared nerve injury (SNI) model, neuropathic pain, mechanical pain threshold; format: in vivo; conditions: rat; for Neuropathic pain (SNI model), analgesic effect: 3 mg/kg subcutaneous, 14 days after SNI, 1 hour after administration
Procedure: Male SD rats (200-250 g) were used, 6 per group in the cage. All the animals were placed under 12 hours light/cycle (i.e. 12 hours light and 12 hours dark in each day), free to food and water. All the experiments were conducted under the condition that the observers were blind to pharmaceutical treatment.
Spared nerve injury model (SNI): 10% chloral hydrate was injected intraperitoneally to anesthetize rats. […] The muscle was longitudinally separated to expose the core of sciatic nerve and the branching below: tibial nerve, common peroneal nerve and sural nerve. The tibial nerve and common peroneal nerve were ligatured and cut and small sural nerve was retained, meanwhile preventing any injury. The muscle and skin were sutured layer by layer, and then antibiotics were injected intraperitoneally for antibacterial purpose. For detailed methods, please refer to Decosterd I and Woolf C J. Spared nerve injury: an animal model of persistent peripheral neuropathic pain. 2000 August; Pain 87(2):149-58.
Method for detecting mechanical hyperalgesia in rats: firstly CFA solution was injected in the thenar of rats. After 24 hours, mechanical hyperalgesia quantitative detection was adopted to measure the paw withdrawal of rats to normal and harmless mechanical stimulation. Evaluation was conducted according to reference (Chaplan S R et al., Quantitative assessment of tactile allodynia in the rat paw. J Neurosci Methods. 1994 July; 53(1):55-63). In this method, the von Frey fibers with different bending force (equivalent to the range of 1-50 g force) were used to apply harmless mechanical stimulation. The rats were placed in organic glass box with metal mesh plate, and the von Frey fibers were applied on the surface of leg thenar. The von Frey fibers were applied vertically to the surface of thenar to generate the force that will trigger slight resistance to the leg. 2-3 seconds were maintained for every leg thenar. If the leg withdrew suddenly, positive records were recorded. The threshold was the mean of the weight that caused 50% paw withdrawal response (5-6 paw withdrawal/10 stimulations) in overall 10 stimulations.
Compounds MRK 016, C2, C3, C4, C5, C6, C7, C8 or α5IA (A5I) were dissolved in 70% PGE400 (PGE400:water=70:30 in volume). For injection dose, MRK016 was 2 mg/kg body weight; A5I was 3 mg/kg body weight; C2, C3, C4, C5, C6, C7 and C8 were 3 mg/kg body weight.
MRK016-M3 was dissolved in 90% PGE400 (PGE400:water=90:10 in volume). The doses were 10 mg/kg, 3 mg/kg, 1 mg/kg and 0.3 mg/kg, respectively for oral administration.
The method for behavioral data statistics was unpaired t-test. *, p<0.05, represents significant difference.

[3] = system: CFA induced inflammatory pain model rats (mechanical pain); experiment: CFA induced inflammatory pain model, mechanical pain threshold; format: in vivo; conditions: rat, 3 mg/kg injection, 7 days after CFA, 1 hour after administration
[4] = Tissue distribution, brain/plasma ratio by LC-MS; format: in vivo, rat; conditions: for Kp at 1 h: sc, 3 mg/kg, subcutaneous injection, 1 hour after injection; for Kp at 1 h / Kp: rat
Procedure: The second method was to measure the tissue distribution of the substance to be measured in animal tissues. Firstly the candidate substance was administrated to animals by injection (or oral administration). The brain tissue and plasma tissue were extracted 0.25-2.0 hours after injection. liquid Chromatograph Mass SpectrometerL-MS was used to measure the concentration of the drug. If the brain/plasma ratio of the compound is less than 0.5, then the candidate substance is a potential drug for treating pain with fewer side effects.
Meanwhile, the inventors detected the distribution of these compounds in the tissue of rats. Firstly the substances to be measured were subcutaneously injected into the body of animals. Then brain tissue and plasma tissue were extracted 1 hour after injection. Ls-MS was used to measure the concentration of drugs. If the brain/plasma ratio of the compound is less than 0.1, then the candidate substance is a potential drug for treating pain with fewer side effects.

[5] = brain and plasma extracted 0.25-2.0 hours after injection, LC-MS

| Compound | CFA induced inflammatory pain model (heat pain), analgesic effect [1] | Neuropathic pain (SNI model), analgesic effect [2] | CFA induced inflammatory pain model (mechanical pan), analgesic effect [3] | Kp at 1 h ([4]; brain and plasma, LC-MS) | other results |
| --- | --- | --- | --- | --- | --- |
| Cc1ncn2c1Cn1ncnc1-c1cc(Br)ccc1-2 | Significant analgesic effect | Significant analgesic effect | Significant analgesic effect | < 0.2 | – |
| FC(F)c1ncn2c1Cn1ncnc1-c1cc(I)ccc1-2 | Significant analgesic effect | Significant analgesic effect | Significant analgesic effect | – | – |
| Cc1ncn2c1Cn1ncnc1-c1cc(I)ccc1-2 | Significant analgesic effect | Significant analgesic effect | Significant analgesic effect | < 0.1 | – |
| Clc1ncn2c1Cn1ncnc1-c1cc(I)ccc1-2 | Significant analgesic effect | Significant analgesic effect | Significant analgesic effect | < 0.1 | – |
| Clc1ccc2c(c1)-c1ncnn1Cc1c(Cl)ncn1-2 | Significant analgesic effect | Significant analgesic effect | Significant analgesic effect | – | Kp at 1 h ([4]; in vivo, LC-MS): > 0.2 |
| FC(F)c1ccc2c(c1)-c1ncnn1Cc1c(Cl)ncn1-2 | Significant analgesic effect | Significant analgesic effect | Significant analgesic effect | – | – |
| Cc1ncn2c1Cn1ncnc1-c1cc(C(F)F)ccc1-2 | Significant analgesic effect | Significant analgesic effect | Significant analgesic effect | – | – |
| Cc1ncn2c1Cn1ncnc1-c1cc(Cl)ccc1-2 | Significant analgesic effect | Significant analgesic effect | Significant analgesic effect | 0.2 | – |
| CC(C)(C)C1C(OCc2ccccn2)=NN2C(c3cc(CO)on3)=NN=CC12 (stereo not drawn) [Compound C2, (3-(3-tert-butyl-2-(2-pyridylmethoxyl)-3,3a-2H-pyrazolo[1,5-d][1,2,4]triazin-7-yl)isoxazole-5-yl)methanol] | – | – | – | – | CFA induced inflammatory pain model (heat pain), analgesic effect ([1]; 3 mg/kg): efficiently treat chronic pain; also recorded: efficiently suppressed heat pain or mechanical pain response; Neuropathic pain (SNI model), analgesic effect ([2]; 3 mg/kg): efficiently treat pain; also recorded: efficiently suppressed neuropathic pain; CFA induced inflammatory pain model (mechanical pan), analgesic effect ([3]; 3 mg/kg): efficiently treat pain; also recorded: efficiently suppressed heat pain or mechanical pain response |
| CC(C)(C)C1C(OCc2cccnc2)=NN2C(c3cc(CO)on3)=NN=CC12 (stereo not drawn) [Compound C3, (3-(3-tert-butyl-2-(3-pyridylmethoxyl)-3,3a-2H-pyrazolo[1,5-d][1,2,4]triazin-7-yl)isoxazole-5-yl)methanol] | – | – | – | – | CFA induced inflammatory pain model (heat pain), analgesic effect ([1]; 3 mg/kg): efficiently treat chronic pain; also recorded: efficiently suppressed heat pain or mechanical pain response; Neuropathic pain (SNI model), analgesic effect ([2]; 3 mg/kg): efficiently treat pain; also recorded: efficiently suppressed neuropathic pain; CFA induced inflammatory pain model (mechanical pan), analgesic effect ([3]; 3 mg/kg): efficiently treat pain; also recorded: efficiently suppressed heat pain or mechanical pain response |
| OCc1cc(-c2nnc3c4ccccc4c(OCc4cccnc4)nn23)no1 [Compound C6, {3-[6-(Pyridin-3-ylmethoxy)-[1,2,4]triazolo[3,4-a]phthalazin-3-yl]-isoxazol-5-yl}-methanol] | – | – | – | – | CFA induced inflammatory pain model (heat pain), analgesic effect ([1]; 3 mg/kg): efficiently inhibit nociceptive response; also recorded: efficiently suppressed heat pain or mechanical pain response; Neuropathic pain (SNI model), analgesic effect ([2]; 3 mg/kg): efficiently inhibit nociceptive response; also recorded: efficiently suppressed neuropathic pain; CFA induced inflammatory pain model (mechanical pan), analgesic effect ([3]; 3 mg/kg): efficiently inhibit nociceptive response; also recorded: efficiently suppressed heat pain or mechanical pain response |
| OCc1cc(-c2nnc3c4ccccc4c(OCc4ccncc4)nn23)no1 [Compound C7, {3-[6-(Pyridin-4-ylmethoxy)-[1,2,4]triazolo[3,4-a]phthalazin-3-yl]isoxazol-5-yl}-methanol] | – | – | – | – | CFA induced inflammatory pain model (heat pain), analgesic effect ([1]; 3 mg/kg): efficiently inhibit nociceptive response; also recorded: efficiently suppressed heat pain or mechanical pain response; Neuropathic pain (SNI model), analgesic effect ([2]; 3 mg/kg): efficiently inhibit nociceptive response; also recorded: efficiently suppressed neuropathic pain; CFA induced inflammatory pain model (mechanical pan), analgesic effect ([3]; 3 mg/kg): efficiently inhibit nociceptive response; also recorded: efficiently suppressed heat pain or mechanical pain response |
| FC(F)c1ncn2c1Cn1ncnc1-c1cc(Br)ccc1-2 [drawing 27] | – | – | – | – | Passing blood brain barrier [4, 5]: slightly passing blood brain barrier; Kp ([4]; other: injection (or oral administration), brain and plasma extracted 0.25-2.0 hours after injection, LC-MS, read-out: brain/plasma ratio): < 0.5 |
| Clc1ncn2c1Cn1ncnc1-c1cc(Br)ccc1-2 [drawing 28] | – | – | – | – | Passing blood brain barrier [4, 5]: more slightly passing blood brain barrier; Kp ([4]; in vivo): < 0.5 |
| Clc1ncn2c1Cn1ncnc1-c1cc(Br)ccc1-2 [drawing 57] | Significant analgesic effect | Significant analgesic effect | Significant analgesic effect | < 0.1 | – |
| FC(F)c1ncn2c1Cn1ncnc1-c1cc(Br)ccc1-2 [drawing 58] | Significant analgesic effect | Significant analgesic effect | Significant analgesic effect | > 0.2 | – |
| NCC1(CC(=O)O)CCCCC1 [gabapentin] | – | – | – | – | Suppression of neuropathic pain ([2]; 11 days after SNI model): efficiently suppressed neuropathic pain |
